In article PMC6328587 (Nature Communications, 2019):
Changes are numbered by the printed parent chain. “Also recorded” adds a separate entry of the source.

Key:
FLAG-p38δ = target: T1, FLAG-p38δ (Homo sapiens, UniProt O15264); assay: Ubiquitination assay, FLAG-p38δ and HA-Ub in HeLa cells; format: cell-based; conditions: 1 µM PROTAC, 2 h
T1 construct: expressed in transfected cells; host or cells: HeLa
T1 sequence (O15264 1-365): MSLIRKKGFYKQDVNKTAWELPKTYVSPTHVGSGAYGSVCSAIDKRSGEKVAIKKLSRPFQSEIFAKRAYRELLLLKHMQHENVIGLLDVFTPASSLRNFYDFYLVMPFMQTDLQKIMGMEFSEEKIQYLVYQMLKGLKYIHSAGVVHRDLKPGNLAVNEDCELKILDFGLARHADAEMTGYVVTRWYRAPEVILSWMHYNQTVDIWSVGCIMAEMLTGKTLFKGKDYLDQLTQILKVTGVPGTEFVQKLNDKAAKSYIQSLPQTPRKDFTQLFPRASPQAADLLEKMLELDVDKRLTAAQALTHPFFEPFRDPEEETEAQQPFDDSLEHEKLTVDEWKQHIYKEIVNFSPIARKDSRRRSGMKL
Method: HeLa cells (2 × 10^6) were seeded into 10 cm dishes and allowed to adhere overnight. On the following day, cells were transfected with 3 µg pcDNA5-FLAG-p38α or pcDNA5-FLAG-p38δ and 1 µg pRK5-HA-Ubiquitin-WT (Addgene plasmid #17608) in Opti-MEM media using Lipofectamine 2000 (Invitrogen). After 6 h, Opti-MEM media were replaced with DMEM (1 × ) and cells were grown for an additional 24 h. After this time, cells were treated with indicated concentrations of either vehicle (DMSO) or PROTAC for the indicated amount of time at 37 °C. Cells were then placed on ice, rinsed twice with ice-cold 1X PBS and lysed in 500 µL modified 1X RIPA buffer (25 mM Tris-HCl pH 7.6, 150 mM NaCl, 1% NP-40, 1% sodium deoxycholate, 0.1% SDS) containing 5 mM 1,10-phenanthroline monohydrate, 10 mM N-ethylmaleimide, 20 µM PR-619, and 1X protease inhibitor cocktail (Roche). Lysates were spun down at 14,000 × g at 4 °C for 20 min and protein content was measured by Pierce BCA Protein Assay (ThermoFisher Scientific). […] Immunoprecipitated protein was eluted off of the beads by heating at 95 °C for 5 min and the supernatant was run on an SDS-PAGE gel and evaluated for the presence of immunoprecipitated FLAG-tagged proteins (anti-FLAG M2, Sigma #F1804), as well as ubiquitinated FLAG-tagged proteins (anti-HA-tag (6E2), CST #2367). […]

[1] = target: T2, mutant (K220E/T221E) p38δ (Homo sapiens, UniProt O15264, K220E/T221E); assay: Degradation of transfected mutant p38δ in HeLa cells; format: cell-based; conditions: 24 h
T2 construct: expressed in transfected cells; host or cells: HeLa cells, Lipofectamine 2000, pcDNA5-p38delta-K220ET221E
T2 sequence (O15264 1-365 K220E/T221E): T1 sequence (O15264 1-365) with K220E, T221E
Method: Mutant p38δ was generated by QuikChange Lightning site-directed mutagenesis kit (Agilent). Transfections were carried out using Lipofectamine 2000 reagent (Invitrogen) in HeLa cells seeded at 3 × 10^5 cells per six well. One microgram of FLAG-containing pcDNA5-p38delta-WT or pcDNA5-p38delta-K220ET221E was used per transfection. Opti-MEM media were changed after 6 h to DMEM (1 × ), at which point the indicated compounds were added for 24 h before harvesting.

[2] = target: T3, VHL:PROTAC:p38α ternary complex (Homo sapiens, UniProt P40337+Q16539); assay: AlphaLISA ternary complex assay; format: binding; conditions: His-p38α and GST-VBC 150 nM, increasing PROTAC
T3 construct: The plasmid contains an N-terminal His6 tag and encodes a region spanning amino acids 2–360 of the human p38α kinase; made in house; host or cells: E. coli BL21-CodonPlus(DE3)-RIPL (p38α); E. coli BL21(DE3) (GST-VBC)
Method: Assays were performed at room temperature and plates sealed with transparent film between addition of reagents to prevent well contamination. All reagents were diluted in 50 mM HEPES pH 7.5, 50 mM NaCl, 69 µM Brij-35, and 0.1 mg mL^−1 BSA. Recombinant GST-VBC was mixed with His6-p38α and PROTAC (diluted one-in-three from 6× stock) to a final volume of 15 μL per well in a OptiPlate-384 well microplate (PerkinElmer) and incubated for 30 min. VBC and p38α were kept at a constant final concentration of 150 nM. In all, 7.5 μL of Anti-6xHis AlphaLISA Acceptor beads (PerkinElmer) were added to each well and plates were incubated for 15 min in the dark. In total, 7.5 μL of Alpha Glutathione Donor beads (PerkinElmer) were added to each well and plates were incubated for 45 min in the dark. Plates were read on a Synergy 2 microplate reader using the Gen5 imager software (BioTek Instruments) with an excitation wavelength of 680 nm and emission wavelength of 615 nm. Intensity values were plotted in Graphpad Prism with PROTAC concentration values represented on a log10 scale.

T3 sequence (Q16539 2-360 limits assumed): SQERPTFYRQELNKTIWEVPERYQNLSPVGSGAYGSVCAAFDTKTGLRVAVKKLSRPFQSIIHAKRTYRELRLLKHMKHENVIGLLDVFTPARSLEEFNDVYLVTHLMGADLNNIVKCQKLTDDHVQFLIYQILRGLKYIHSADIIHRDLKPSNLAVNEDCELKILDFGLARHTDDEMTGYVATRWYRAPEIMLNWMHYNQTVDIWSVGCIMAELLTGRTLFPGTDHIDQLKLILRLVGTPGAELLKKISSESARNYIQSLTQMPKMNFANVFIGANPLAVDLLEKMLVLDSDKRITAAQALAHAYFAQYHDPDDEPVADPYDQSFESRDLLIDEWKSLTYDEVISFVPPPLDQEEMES
T3 sequence (P40337 whole entry, the tested form may be a part): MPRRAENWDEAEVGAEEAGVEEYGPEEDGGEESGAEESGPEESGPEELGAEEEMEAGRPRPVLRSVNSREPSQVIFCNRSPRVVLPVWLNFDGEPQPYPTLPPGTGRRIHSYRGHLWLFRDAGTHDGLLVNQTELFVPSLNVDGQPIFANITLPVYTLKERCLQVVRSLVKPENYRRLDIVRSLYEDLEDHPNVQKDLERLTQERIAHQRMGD
T3 sequence (Q15370 whole entry partner, the tested form may be a part): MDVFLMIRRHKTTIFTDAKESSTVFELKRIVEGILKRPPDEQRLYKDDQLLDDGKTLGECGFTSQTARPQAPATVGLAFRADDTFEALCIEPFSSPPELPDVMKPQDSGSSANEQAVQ
T3 sequence (Q15369 whole entry partner, the tested form may be a part): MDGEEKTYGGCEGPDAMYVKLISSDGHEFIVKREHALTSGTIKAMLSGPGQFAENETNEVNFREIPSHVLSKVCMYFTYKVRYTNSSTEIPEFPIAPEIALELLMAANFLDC

Structure (SMILES)	ubiquitination of immunoprecipitated FLAG-p38δ (FLAG-p38δ)	degradation of double-mutant (K220E/T221E) p38δ [1]	p38α:PROTAC:VHL ternary complex formation (AlphaLISA) [2]
COc1cc2c(Oc3ccc(NC(=O)C4(C(=O)Nc5ccc(F)cc5)CC4)cc3F)ccnc2cc1OCCCCOCCCCOCC(=O)N[C@H](C(=O)N1C[C@H](O)C[C@H]1C(=O)NCc1ccc(-c2scnc2C)cc1)C(C)(C)C [SJFα]	far less abundant	able to degrade; also recorded: potently degrades	facilitates a VHL:PROTAC:p38α ternary complex
COc1cc2c(Oc3ccc(NC(=O)C4(C(=O)Nc5ccc(F)cc5)CC4)cc3F)ccnc2cc1OCCOCCOCCOc1cc(-c2scnc2C)ccc1CNC(=O)[C@@H]1C[C@@H](O)CN1C(=O)[C@H](C(C)C)N1Cc2ccccc2C1=O [SJFδ]	levels of ubiquitination of immunoprecipitated p38δ greater than control cells	able to degrade	no such ternary species is detectable
